Values quoted from earlier work, collected in US6514536B2, “Drug preparations for treating sexual dysfunction” (L.A.M. Pharmaceutical Corporation, priority 1998, dated 2003).

Legend:
penile blood flow = details: duplex sonography
erection = details: men who failed prior intracavernous therapy with papaverine and phentolamine
[1] = tested on: isolated corpus cavernosum and corpus spongiosum preparations; details: in vitro
[2] = tested on: isolated cavernosal artery segments; details: segments pre-contracted with noreginephrine or prostaglandin E2α
blood pressure = details: intravenous doses of 1 to 10 micrograms per kilogram of body weight
[3] = most abundant metabolite in plasma

| Compound | increase in penile blood flow compared with papaverine (penile blood flow) | share of men achieving adequate erections (erection) | smooth muscle relaxation [1] | vasodilation [2] | effect on blood pressure (blood pressure) | biological activity [3] |
| --- | --- | --- | --- | --- | --- | --- |
| CCCCC[C@H](O)/C=C/[C@H]1[C@H](O)CC(=O)[C@@H]1CCCCCCC(=O)O [PGE1, prostaglandin E1] | at least as effective as papaverine | two-thirds | dose-dependent smooth muscle relaxation | vasodilation has been demonstrated | lower blood pressure | – |
| CCCCCC(=O)CC[C@H]1[C@H](O)CC(=O)[C@@H]1CCCCCCC(=O)O [DKH-PGE1, 13,14-dihydro,15-keto PGE1] | – | – | – | – | – | biologically inactive |
